Patent US20250268884A1, “Deuterated Domperidone for Treating Gastroparesis” (CinDome Pharma, Inc., priority 2022, published 2025)

Assays:
[1] = tested on: prolactin; test: Prolactin concentration (pharmacodynamic evaluation), Phase 2a; assay type: in vivo, human; settings: Safety Population
Text: Table 14 summarizes prolactin concentration and change from baseline by scheduled time point and treatment for the Safety Population.

[2] = tested on: adults with idiopathic or diabetic gastroparesis; settings: 10 mg BID, Cohort 1, ITT
Text: Gastric emptying may be measured by the gastric emptying breath test (GEBT). The GEBT is known in the art. Succinctly, the GEBT is a nonradioactive stable isotope breath test used in the art to diagnose or monitor gastroparesis. In this test, the ratio of exhaled ^13CO2/^12CO2 is used to determine the rate of gastric emptying after consumption of a standardized, ^13C-enriched meal. In some embodiments, the ^13C-enriched meal is ^13C-Spirulina platensis. In some examples, the test includes consumption of a standardized, ^13C-enriched meal after an 8-hour fast. See, e.g., the Cairn Gastric Emptying Breath Test (GEBT) Administration Guide at https://cairndiagnostics.com/wp-content/uploads/2019/05/Cairn-GEBT-How-To-Guide-updated-07May2019.pdf, which is hereby incorporated by reference. Breath samples are obtained one or more times prior to consumption of the ^13C-enriched meal and then one or more times after meal consumption. The breath samples are then measured using, e.g., a gas isotope ratio mass spectrometer. […]
Subjects were Evaluated as Follows: • Days −28 to −11: Screening procedures were performed. The ANMS GCSI-DD questionnaire was completed daily for at least 14 days prior to randomization (Day 1); • Days −10 to −3: The ANMS GCSI-DD questionnaire was completed daily. A GEBT was performed on a single day within this window, with breath samples obtained twice prior to consumption of a standardized, carbon-13 (^13C)-enriched meal and then at 45, 90, 120, 150, 180, and 240 minutes after meal consumption after an 8-hour fast. […] On Day 14 (±2 days), the PAGI-SYM and Clinical Grading Assessment questionnaires were completed prior to the final dose of study drug. • A GEBT was administered 30 minutes after study drug administration on Day 14 (±2 days). Breath samples were obtained twice prior to ^13C-enriched meal consumption and then at 45, 90, 120, 150, 180, and 240 minutes after meal consumption after an 8-hour fast. […] Clinical Grading Assessment Scales were also performed.
The primary efficacy variable was the change from baseline in gastric emptying as measured by GEBT at Day 14.
The secondary efficacy variables were the following: • The change from baseline in gastric emptying as measured by GEBT T½ at Day 14; • The change from baseline in ANMS GCSI-DD total scores; and • The change from baseline in ANMS GCSI-DD subscale scores.

## [2H]c1c([2H])c([2H])c2c([nH]c(=O)n2CCCN2CCC(n3c(=O)[nH]c4cc(Cl)ccc43)CC2)c1[2H] [Deudomperidone, 1-{3-[4-(5-chloro-2-oxo-2,3-dihydro-1H-1,3-benzodiazol-1-yl)piperidin-1yl]propyl}-2,3-dihydro(4,5,6,7-D4)-1H-1,3-benzodiazol-2-one]
[1]; 5 mg BID
  Prolactin, Day 3, mean (SD): 396.7 (185.83) mIU/L
  Prolactin, Day 7, mean (SD): 622.9 (317.61) mIU/L
  Prolactin, Day 10, mean (SD): 449.7 (147.64) mIU/L
  Prolactin, Day 14, mean (SD): 578.0 (205.82) mIU/L
  Prolactin, change from baseline to Day 3, mean (SD): 143.4 (124.58) mIU/L
  Prolactin, change from baseline to Day 7, mean (SD): 369.7 (263.19) mIU/L
  Prolactin, change from baseline to Day 10, mean (SD): 196.4 (99.96) mIU/L
  Prolactin, change from baseline to Day 14, mean (SD): 324.8 (187.12) mIU/L
[1]; 10 mg BID
  Prolactin, Day 3, mean: 570.2 mIU/L
  Prolactin, Day 7, mean: 640.0 mIU/L
  Prolactin, Day 10, mean: 734.9 mIU/L
  Prolactin, Day 14, mean: 774.2 mIU/L
  Prolactin, change from baseline to Day 3: 351.5 mIU/L
  Prolactin, change from baseline to Day 7: 421.2 mIU/L
  Prolactin, change from baseline to Day 10: 512.1 mIU/L
  Prolactin, change from baseline to Day 14: 555.5 mIU/L
[1]; 10 mg BID, n = 2
  Prolactin, change from baseline to follow-up/early termination: −32.5 mIU/L
  Prolactin, follow-up/early termination, mean: 195.0 mIU/L
[1]; 20 mg QD
  Prolactin, Day 3, mean: 830.5 mIU/L
  Prolactin, Day 7, mean: 1219.5 mIU/L
  Prolactin, Day 10, mean: 1264.1 mIU/L
  Prolactin, Day 14, mean: 1251.9 mIU/L
  Prolactin, change from baseline to Day 3: 522.1 mIU/L
  Prolactin, change from baseline to Day 7: 911.1 mIU/L
  Prolactin, change from baseline to Day 10: 955.8 mIU/L
  Prolactin, change from baseline to Day 14: 943.6 mIU/L
[2]
  GEBT 45 minutes post meal consumption, Day 14, mean: 10.74 kPCD
  GEBT 45 minutes post meal consumption, change from baseline to Day 14: 1.96 kPCD
  GEBT 45 minutes post meal consumption, percent change from baseline to Day 14: 89.31%
  GEBT 90 minutes post meal consumption, Day 14, mean: 23.60 kPCD
  GEBT 90 minutes post meal consumption, change from baseline to Day 14: 3.37 kPCD
  GEBT 90 minutes post meal consumption, percent change from baseline to Day 14: 56.73%
  GEBT 120 minutes post meal consumption, Day 14, mean: 32.68 kPCD
  GEBT 120 minutes post meal consumption, change from baseline to Day 14: 3.86 kPCD
  GEBT 120 minutes post meal consumption, percent change from baseline to Day 14: 40.17%
  GEBT 150 minutes post meal consumption, Day 14, mean: 37.13 kPCD
  GEBT 150 minutes post meal consumption, change from baseline to Day 14: 1.25 kPCD
  GEBT 150 minutes post meal consumption, percent change from baseline to Day 14: 23.46%
  GEBT 180 minutes post meal consumption, Day 14, mean: 40.96 kPCD
  GEBT 180 minutes post meal consumption, change from baseline to Day 14: 1.85 kPCD
  GEBT 180 minutes post meal consumption, percent change from baseline to Day 14: 20.31%
  GEBT 240 minutes post meal consumption, Day 14, mean: 41.41 kPCD
  GEBT 240 minutes post meal consumption, change from baseline to Day 14: −0.79 kPCD
  GEBT 240 minutes post meal consumption, percent change from baseline to Day 14: 9.46%
